Series [1] concerns antigen presentation from DCs to CD4+ T cells. Kind of series: DC antigen presentation to OT-II CD4+ T cells, [3H]-thymidine incorporation. The following applies: for MDSC inhibition of antigen presentation in the presence of iNOS inhibitor: MDSCs derived from B16 melanoma, OVA peptide stimulus. The class given is cell-based, mouse. How it is done:
For space constraints only the OVA peptide stimulus is depicted in B and C.
The effects of NO on DC function using transgenic mice were evaluated that express a T cell receptor (TCR) specific for a defined antigen, namely OVA. […] Levels of SNAP or other NO donors such as deta-NONOate can be adjusted to mimic the physiological concentration of NO within MDSCs and be utilized to directly measure binding of tetramers to the TCR complex. To simulate a real world scenario of antigen expressed naturally by the B16 tumors as advised by the reviewers, We can utilize transgenic mice that express a T cell receptor (TCR) specific for the Tyrosinase-Related Protein 1 (Trp-1).

The next series relates to B16 melanoma cells. Kind of series: Cytotoxicity of PMEL CD8 T cells against gp-100 coated B16 cells, flow cytometry. The class given is cell-based. The note with it: 100 μM; p=0.02. How it is done:
Cytoxicity was measured via flow cytometry with CellTrace™ Far Red (B16 cells) and a live/dead marker (Zombie™ Green).

In series [2] the test system is STAT1. The experiment in a line: Nitrated STAT1 by immunoblot after nitrated tyrosine immunoprecipitation in normal donor PBMC. The class given is cell-based. The note with it: normal donor human PBMC. The source says:
An increased [nSTAT1]/[STAT1] ratio can be associated with resistance to anti-PD-1 therapy. Unfractionated PBMC samples are utilized for the mass spectrometry experiments as they are routinely collected from patients and with the expectation of STAT1 having increased nitration (FIG. 4). A second aliquot of PBMCs from the patients can be stimulated in parallel with IFN and subsequent downstream activation determined via measurement of phosphorylated STAT1. Activation of STAT1 can be measured by intracellular staining for activated (i.e. phosphorylated) STAT1 using flow cytometry. IFN responsiveness decreases by ~30% in metastatic cancer patients. There is an inverse relationship between the levels of pSTAT1 and levels of nitrated STAT1. As a control, STAT1 nitration can be measured in normal donor PBMCs treated with SNAP via immunoblot (FIG. 13). As such, PBMCs from melanoma patients can be compared to normal donors. […] Additional nitrated proteins can be quantified in the future via LC-MRM (Liquid Chromatography, multiple reaction monitoring) including the targets outlined in the introductory material (assay requires <200,000 cells); and can expand the list of which nitration events are important for response to anti-PD1 therapy in case STAT1 is not the only important target.

A further series has as its system T cells. The experiment in a line: T cell proliferation after tetanus toxoid antigen presentation from human DC in PBMC sample. The class given is cell-based. The note with it: tetanus toxoid 1 ug/ul.
For another series, the system named is B16 melanoma. The experiment in a line: PD-1 refractory B16 melanoma model. The series is classed as in vivo, mouse. The source says:
NCX-4016 is a nitroaspirin and inhibits the nitric oxide synthase via a negative feedback mechanism. These compounds are available for clinical trial use, and have a toxicity profile that is favorable for evaluation in patients with advanced malignancies. I predict nitroaspirin compounds in combination with anti-PD-1 therapy can rescue the ability to stimulate CD4^+ T cells and decrease tumor growth. […] We can use nitroaspirin alone and along with anti-PD-1 in therapeutically achievable doses in the murine B16 melanoma model to measure tumor growth curves and obtain specimens for analyses.

Series [3] concerns STAT1. The experiment in a line: pSTAT1 flow cytometry of normal donor PBMCs stimulated with interferon-alpha. The class given is cell-based, human. The method, then:
FIGS. 20A, 20B, and 20C show Interferon-alpha stimulation of normal donors PBMCs.
(§1) Flow cytometry and mass spectrometry analyses. Flow cytometric analysis of pSTAT1 and liquid chromatography-tandem mass spectrometry (LC-MS-MS) analysis of nitrated STAT1 (nSTAT1) were conducted on all samples. For flow cytometry studies, frozen PBMCs were thawed at 37° C., washed with culturing media, and allowed to rest overnight in complete media at 5% CO2 at 37° C. PBMCs were stimulated with interferon-α (Miltenyi Biotec, Cambridge, MA) at 0, 10^2 U/mL, and 10^4 U/mL and incubated for 15 minutes in media.
The live/dead marker Zombie NIR (BioLegend, San Diego, CA) was used before permeabilization to distinguish live cells. The samples were permeabilized using the FIX & PERM Cell Permeabilization Kit with methanol modification (Fisher Scientific, Hampton, MA) and fixed at −20° C. for a minimum of 2 hours. pSTAT1 was detected by a pSTAT1 antibody (AF488; BD Biosciences, San Jose, CA). Flow cytometry data were collected either on Canto or LSRII flow cytometers (BD Biosciences, San Jose, CA), and data were analyzed in FCS Express (De Novo Software, Pasadena, CA). Measurement of patient-derived PBMCs for nSTAT1 and native STAT1 via LC-MS-MS SRM experiments was performed. […]

Series [4] has as its system resected stages IIIC/IV melanoma. Kind of series: Phase II trial of adjuvant ipilimumab with a peptide vaccine, clinical outcome. The class given is in vivo, human. The method, then: Patient samples. […] Peripheral blood leukocytes were collected before initiation of ipilimumab treatment and at approximately 150 days after the first treatment. PBMCs were available and were de-identified before inclusion in our current study.
Statistical analyses. We conducted statistical analyses to determine whether there is a relationship between levels of pSTAT1, nSTAT1, and RFS. Survival outcome was summarized using Kaplan-Meier method and log-rank test was performed to evaluate the association of survival outcome with pSTAT1 and nSTAT1 levels dichotomized by the median-split method. […] Levene's F-test for the homogeneity of variance was used to compare variance of pSTAT1 level among patients with different RFS rates. Patients were also stratified using the median-split method for a survival comparison analysis of [nSTAT1]post-[nSTAT1]pre with ipilimumab treatment. […] A two-sided P value of <0.05 was considered statistically significant. Treatment outcome is reported at the end of the follow up period for the parent trial (5 years).
Patient demographics. Pre- and post-therapy PBMCs were available from 35 patients with resected stages IIIC/IV melanoma.

The test system of series [5] is STAT1. Kind of series: pSTAT1 flow cytometry of patient PBMCs pre versus post ipilimumab. The series is classed as in vivo, human. How it is done: FIGS. 22A, 22B, and 22C show the paired pSTAT1 level pre versus post ipilimumab treatment without (FIG. 22A) Interferon-alpha stimulation, after (FIG. 22B) 10^2 U/mL Interferon-alpha stimulation, and (FIG. 22C) 10^4 U/mL Interferon-alpha stimulation.
as §1
The live/dead marker Zombie NIR (BioLegend, San Diego, CA) was used before permeabilization to distinguish live cells. The samples were permeabilized using the FIX & PERM Cell Permeabilization Kit with methanol modification (Fisher Scientific, Hampton, MA) and fixed at −20° C. for a minimum of 2 hours. pSTAT1 was detected by a pSTAT1 antibody (AF488; BD Biosciences, San Jose, CA). Flow cytometry data were collected either on Canto or LSRII flow cytometers (BD Biosciences, San Jose, CA), and data were analyzed in FCS Express (De Novo Software, Pasadena, CA). […]

Series [6] concerns stage IIIB through IV melanoma. The note with it: adjuvant, cited from earlier work; for 12-month RFS rate: stage IIIB through IV melanoma.
Another series deals with stage III melanoma. The following applies: cited from earlier work.
[7] abbreviates: n = 35, end of follow up period (5 years).

“Also recorded” adds a separate entry of the source.

Turning to `CC(=O)NC(C(=O)O)C(C)(C)SN=O` (racemic) [SNAP, S-Nitroso-N-Acetyl-D,L-Penicillamine], the “DC antigen presentation to CD4+ T cells (proliferation of OT-II T cells)” value in [1] (nitric oxide donor SNAP, DCs and CD4+ T cells ratio 1:4 from OT-II mouse) is on record as “inhibit DC antigen presentation to CD4+ T cells”. The “cytotoxicity of target B16 melanoma cells by effector PMEL CD8 T cells” value with B16 melanoma cells is “reduced”. In the series with STAT1 [2], the “levels of nitrated STAT1” value is given as “elevated levels of nitrated STAT1”. For the same compound, in the series with T cells, the “proliferation of T cells after antigen presentation of tetanus toxoid” value is “decreases proliferation of T cells”.
On to `COC(=O)[C@@H](N)CCCNC(=N)N[N+](=O)[O-]` [L-NAME, L-nitroarginine methyl ester], for which the “MDSC inhibition of antigen presentation in the presence of iNOS inhibitor” value in series [1] is “this effect was abrogated”.
As to `CC(=O)Oc1ccccc1C(=O)Oc1cccc(CO[N+](=O)[O-])c1` [NCX-4016], the “MDSC inhibition of antigen presentation in the presence of iNOS inhibitor” value in series [1] was “this effect was abrogated”. Besides, the “iNOS expression with iNOS inhibitor in-vivo” value in the series on B16 melanoma (B16 melanoma model) was “iNOS expression is decreased”. Besides, in the series with B16 melanoma (PD-1 refractory B16 melanoma model, combination with anti-PD-1), the “efficacy in combination with anti-PD1 blockade” value is listed as “more efficacious than either treatment alone; also recorded: increases the efficacy of anti-PD1 blockade”.
On to interferon-α, for which the “pSTAT1 levels with increasing interferon levels” value in the series on STAT1 [3] is on record as “concentration-dependent increase in pSTAT1 levels”. Also, in the series with STAT1 [3] (15 minutes of treatment), the “concentration showing near-maximum phosphorylation of STAT1” value was 500 U/ml.
In the case of “ipilimumab: Monoclonal antibody against CTLA-4”, in [4] (Log rank P-value=0.96), the “RFS, 3 mg/kg vs 10 mg/kg” value is “no statistical significant differences in RFS”. In series [4] (setting [7]), the “Treatment outcome AWD (alive with disease), Percentage” value is 6%; the “Treatment outcome DOD (died of disease), Percentage” value came out at 17%; the “Treatment outcome NED (no evidence of disease), Percentage” value was found to be 77%. Moreover, the “levels of STAT1 pre versus post treatment” value in the series with STAT1 [5] (10 mg/kg cohort, t-test, p<0.01) was “statistically significant increase”. Further, the “changes in pSTAT1 between the 10 mg/kg and 3 mg/kg cohorts” value with STAT1 [5] (150 days post treatment) was “no statistically significant changes in pSTAT1”. Moreover, the “12-month RFS rate” value in [6] is given as 60.8%.
For the compound “nivolumab: Monoclonal antibody against PD-1”, in [6], the “12-month RFS rate” value was 70.5% and the “toxicity compared to ipilimumab” value is “significantly decreased toxicity”.
Turning to “pembrolizumab: Monoclonal antibody against PD-1”, the “efficacy compared to interferon-α or ipilimumab” value in the series on stage III melanoma was “increased efficacy”.

These data come from patent publication US20260283997A1, “METHODS FOR INHIBITING RESISTANCE TO IMMUNE BLOCKADE INHIBITOR THERAPY” (H. LEE MOFFITT CANCER CENTER AND RESEARCH INSTITUTE, INC., priority 2023, published 2026).
